Molecular target: T1, c-Met kinase (recombinant c-Met) (Homo sapiens, UniProt P08581)
T1 construct: 0.27 nM recombinant c-Met
Assay: In vitro kinase assay I (homogeneous time-resolved fluorescence tyrosine kinase assay)
Assay type: biochemical
Procedure, shortened: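 Biotinylated peptide (0.5 μM) phosphorylated by 0.2 nM recombinant c-Met with 50 μM MgATP, 60 min at room temperature, pH 7.4, 5% DMSO. EDTA stop; HTRF read with Eu-anti-phosphotyrosine antibody and streptavidin-APC. IC50 from 4-parameter logistic fit.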

T1 sequence (P08581 25-1390): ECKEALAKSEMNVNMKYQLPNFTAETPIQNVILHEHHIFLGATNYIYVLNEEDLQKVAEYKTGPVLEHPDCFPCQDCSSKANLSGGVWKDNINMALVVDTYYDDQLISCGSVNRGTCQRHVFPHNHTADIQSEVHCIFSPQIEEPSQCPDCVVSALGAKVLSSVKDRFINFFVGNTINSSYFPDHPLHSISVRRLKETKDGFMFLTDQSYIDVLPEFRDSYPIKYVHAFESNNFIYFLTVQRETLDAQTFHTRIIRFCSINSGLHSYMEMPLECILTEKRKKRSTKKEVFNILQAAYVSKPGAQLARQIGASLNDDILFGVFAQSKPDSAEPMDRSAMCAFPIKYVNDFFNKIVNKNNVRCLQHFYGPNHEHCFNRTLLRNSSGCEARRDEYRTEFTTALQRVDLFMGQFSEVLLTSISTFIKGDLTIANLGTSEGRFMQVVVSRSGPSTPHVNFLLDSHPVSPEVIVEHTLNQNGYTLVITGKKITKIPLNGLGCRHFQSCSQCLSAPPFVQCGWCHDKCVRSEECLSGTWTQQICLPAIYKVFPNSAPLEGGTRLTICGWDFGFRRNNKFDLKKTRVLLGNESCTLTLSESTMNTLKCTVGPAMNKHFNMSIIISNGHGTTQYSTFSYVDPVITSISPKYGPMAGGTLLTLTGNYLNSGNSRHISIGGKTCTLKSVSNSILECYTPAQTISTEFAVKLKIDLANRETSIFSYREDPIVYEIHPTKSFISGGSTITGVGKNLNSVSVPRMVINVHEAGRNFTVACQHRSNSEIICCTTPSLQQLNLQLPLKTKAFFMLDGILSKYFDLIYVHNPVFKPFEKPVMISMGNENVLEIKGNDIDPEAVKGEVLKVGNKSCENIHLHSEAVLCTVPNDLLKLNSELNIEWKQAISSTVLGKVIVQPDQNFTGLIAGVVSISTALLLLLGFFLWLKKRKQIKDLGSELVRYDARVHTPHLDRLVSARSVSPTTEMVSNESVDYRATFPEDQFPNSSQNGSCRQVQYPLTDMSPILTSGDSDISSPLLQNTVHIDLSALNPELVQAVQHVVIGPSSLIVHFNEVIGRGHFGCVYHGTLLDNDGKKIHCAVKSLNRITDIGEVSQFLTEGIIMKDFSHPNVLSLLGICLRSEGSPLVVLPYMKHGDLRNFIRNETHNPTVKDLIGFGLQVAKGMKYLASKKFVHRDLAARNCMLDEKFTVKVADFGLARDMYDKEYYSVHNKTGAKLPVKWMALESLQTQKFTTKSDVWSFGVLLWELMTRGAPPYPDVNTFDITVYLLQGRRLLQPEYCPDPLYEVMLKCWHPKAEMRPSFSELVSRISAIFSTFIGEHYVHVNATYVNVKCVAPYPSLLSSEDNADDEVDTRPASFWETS

| Structure (SMILES) | IC50 |
| --- | --- |
| CCOc1cnc(-c2cccc(C(O)c3nn(-c4cnn(C)c4)ccc3=O)c2)nc1 (racemic) [Example 654, rac-3-[[3-(5-Ethoxypyrimidin-2-yl)phenyl](hydroxy)methyl]-1-(1-methyl-1H-pyrazol-4-yl)pyridazin-4(1H)-one] | 100 to 1000 nM |
| [2H]C([2H])([2H])n1cc(-n2ccc(=O)c(C(F)c3cccc(-c4ncc(OCC)cn4)c3)n2)cn1 (racemic) [Example 657, rac-3-[[3-(5-Ethoxypyrimidin-2-yl)phenyl](fluoro)methyl]-1-(1-methyl-1H-pyrazol-4-yl)pyridazin-4(1H)-one-d3] | < 100 nM |
| [2H]C([2H])([2H])n1cc(-n2ccc(=O)c(C(F)c3cccc(-c4ncc(OC([2H])([2H])C([2H])([2H])[2H])cn4)c3)n2)cn1 (racemic) [Example 658, rac-3-[[3-(5-Ethoxypyrimidin-2-yl)phenyl](fluoro)methyl]-1-(1-methyl-1H-pyrazol-4-yl)pyridazin-4(1H)-one-d8] | < 100 nM |
| CCOc1cnc(-c2cccc(C(OC)c3nn(-c4cnn(C)c4)ccc3=O)c2)nc1 (racemic) [Example 659, rac-3-[[3-(5-Ethoxypyrimidin-2-yl)phenyl](methoxy)methyl]-1-(1-methyl-1H-pyrazol-4-yl)pyridazin-4(1H)-one] | 100 to 1000 nM |
| CCOc1cnc(-c2cccc(C(CCC#N)c3nn(-c4cn[nH]c4)ccc3=O)c2)nc1 (racemic) [Example 665, rac-4-[3-(5-Ethoxypyrimidin-2-yl)phenyl]-4-[4-oxo-1-(1H-pyrazol-4-yl)-1,4-dihydropyridazin-3-yl]butanenitrile] | 100 to 1000 nM |
| CCOc1ccnc(-c2cccc(C(C)c3nn(-c4cnn(C)c4)ccc3=O)c2)n1 (racemic) [Example 678, rac-3-{1-[3-(4-Ethoxypyrimidin-2-yl)phenyl]ethyl}-1-(1-methyl-1H-pyrazol-4-yl)pyridazin-4(1H)-one] | < 100 nM |
| COCCOc1ccnc(-c2cccc(C(C)c3nn(-c4cnn(C)c4)ccc3=O)c2)n1 (racemic) [Example 679, rac-3-(1-{3-[4-(2-methoxyethoxy)pyrimidin-2-yl]phenyl}ethyl)-1-(1-methyl-1H-pyrazol-4-yl)pyridazin-4(1H)-one] | 100 to 1000 nM |
| CC(C)COC(=O)Nc1cccc(Cc2nn(-c3cnn(CCCC(=O)NCC(C)O)c3)ccc2=O)c1 (racemic) [Example 706, rac-2-methylpropyl (3-{[1-(1-{4-[(2-hydroxypropyl)amino]-4-oxobutyl}-1H-pyrazol-4-yl)-4-oxo-1,4-dihydropyridazin-3-yl]methyl}phenyl) carbamate] | 100 to 1000 nM |
| Cn1cc(-n2ccc(=O)c(Cc3cccc(-c4ncn(CCC5CCCO5)n4)c3)n2)cn1 (racemic) [Example 711, rac-1-(1-methyl-1H-pyrazol-4-yl)-3-(3-{1-[2-(tetrahydrofuran-2-yl)ethyl]-1H-1,2,4-triazol-3-yl}benzyl)pyridazin-4(1H)-one] | < 100 nM |
| Cn1cc(-n2ccc(=O)c(Cc3cccc(-c4ncn(CCC5CCOC5)n4)c3)n2)cn1 (racemic) [Example 717, rac-1-(1-methyl-1H-pyrazol-4-yl)-3-(3-{1-[2-(tetrahydrofuran-3-yl)ethyl]-1H-1,2,4-triazol-3-yl}benzyl)pyridazin-4(1H)-one] | < 100 nM |
| Cn1cc(-n2ccc(=O)c(Cc3cccc(-c4ncn(CCCC5CCCO5)n4)c3)n2)cn1 (racemic) [Example 721, rac-1-(1-methyl-1H-pyrazol-4-yl)-3-(3-{1-[3-(tetrahydrofuran-2-yl)propyl]-1H-1,2,4-triazol-3-yl}benzyl)pyridazin-4(1H)-one] | < 100 nM |
| CCOc1cnc(-c2cccc(C(C)c3nn(-c4cccc(C(N)=O)c4)ccc3=O)c2)nc1 (racemic) [Example 738, rac-3-[3-{1-[3-(5-ethoxypyrimidin-2-yl)phenyl]ethyl}-4-oxopyridazin-1(4H)-yl]lbenzamide] | < 100 nM |
| Cn1cc(-n2ccc(=O)c(Cc3cccc(-c4ncc([C@]5(F)CCNC[C@@H]5O)cn4)c3)n2)cn1 (racemic) [Example 749, rac-3-({3-[5-(trans-4-Fluoro-3-hydroxypiperidin-4-yl)pyrimidin-2-yl]benzyl}-1-(1-methyl-1H-pyrazol-4-yl)pyridazin-4(1H)-one] | < 100 nM |
| Cn1cc(-n2ccc(=O)c(C(F)c3ccc4ncccc4c3)n2)cn1 (racemic) [Example 753, rac-3-[Fluoro(quinolin-6-yl)methyl]-1-(1-methyl-1H-pyrazol-4-yl)pyridazin-4(1H)-one] | 1000 to 3000 nM |
| Cn1cc(-n2ccc(=O)c(Cc3cccc(-c4ncc(C5CCOC5)cn4)c3)n2)cn1 (racemic) [compound 199, rac-1-(1-methyl-1H-pyrazol-4-yl)-3-{3-[5-(tetrahydrofuran-3-yl)pyrimidin-2-yl]benzyl} pyridazin-4(1H)-one] | < 100 nM |
| CCOc1cnc(-c2cccc(C(C)c3nn(-c4cnn(C)c4)ccc3=O)c2)nc1 (single isomer, unassigned) [Example 201, 3-{(1S or R)-1-[3-(5-ethoxypyrimidin-2-yl)phenyl]ethyl}-1-(1-methyl-1H-pyrazol-4-yl)pyridazin-4(1H)-one] | 100 to 1000 nM |
| CCOc1cnc(-c2cccc(C(C)c3nn(-c4cnn(C)c4)ccc3=O)c2)nc1 (single isomer, unassigned) [Example 202, 3-{(1R or S)-1-[3-(5-ethoxypyrimidin-2-yl)phenyl]ethyl}-1-(1-methyl-1H-pyrazol-4-yl)pyridazin-4(1H)-one] | < 100 nM |
| COc1cnc(-c2cccc(C(C)c3nn(-c4cnn(C)c4)ccc3=O)c2)nc1 (single isomer, unassigned) [Example 203, 3-{(1S or R)-1-[3-(5-Methoxypyrimidin-2-yl)phenyl]ethyl}-1-(1-methyl-1H-pyrazol-4-yl)pyridazin-4(1H)-one] | 100 to 1000 nM |
| COc1cnc(-c2cccc(C(C)c3nn(-c4cnn(C)c4)ccc3=O)c2)nc1 (single isomer, unassigned) [Example 204, 3-{(1R or S)-1-[3-(5-methoxypyrimidin-2-yl)phenyl]ethyl}-1-(1-methyl-1H-pyrazol-4-yl)pyridazin-4(1H)-one] | < 100 nM |
| CCOc1cnc(-c2cccc(C(CC)c3nn(-c4cnn(C)c4)ccc3=O)c2)nc1 (single isomer, unassigned) [Example 205, 3-{(1S or R)-1-[3-(5-ethoxypyrimidin-2-yl)phenyl]propyl}-1-(1-methyl-1H-pyrazol-4-yl)pyridazin-4(1H)-one] | 100 to 1000 nM |
| CCOc1cnc(-c2cccc(C(CC)c3nn(-c4cnn(C)c4)ccc3=O)c2)nc1 (single isomer, unassigned) [Example 206, 3-{(1R or S)-1-[3-(5-ethoxypyrimidin-2-yl)phenyl]propyl}-1-(1-methyl-1H-pyrazol-4-yl)pyridazin-4(1H)-one] | < 100 nM |
| CCCC(c1cccc(-c2ncc(OCC)cn2)c1)c1nn(-c2cnn(C)c2)ccc1=O (single isomer, unassigned) [Example 207, 3-{(1S or R)-1-[3-(5-ethoxypyrimidin-2-yl)phenyl]butyl}-1-(1-methyl-1H-pyrazol-4-yl)pyridazin-4(1H)-one] | 100 to 1000 nM |
| CCCC(c1cccc(-c2ncc(OCC)cn2)c1)c1nn(-c2cnn(C)c2)ccc1=O (single isomer, unassigned) [Example 208, 3-{(1R or S)-1-[3-(5-ethoxypyrimidin-2-yl)phenyl]butyl}-1-(1-methyl-1H-pyrazol-4-yl)pyridazin-4(1H)-one] | < 100 nM |
| CC(c1cccc(-c2ncc(OC(F)F)cn2)c1)c1nn(-c2cnn(C)c2)ccc1=O (single isomer, unassigned) [Example 209, 3-[(1S or R)-1-{3-[5-(difluoromethoxy)pyrimidin-2-yl]phenyl}ethyl]-1-(1-methyl-1H-pyrazol-4-yl)pyridazin-4(1H)-one] | 100 to 1000 nM |
| CC(c1cccc(-c2ncc(OC(F)F)cn2)c1)c1nn(-c2cnn(C)c2)ccc1=O (single isomer, unassigned) [Example 210, 3-[(1R or S)-1-{3-[5-(difluoromethoxy)pyrimidin-2-yl]phenyl}ethyl]-1-(1-methyl-1H-pyrazol-4-yl)pyridazin-4(1H)-one] | < 100 nM |
| CC(c1cccc(-c2ncc(OC3CCOCC3)cn2)c1)c1nn(-c2cnn(C)c2)ccc1=O (single isomer, unassigned) [Example 211, 1-(1-methyl-1H-pyrazol-4-yl)-3-[(1S or R)-1-{3-[5-(tetrahydro-2H-pyran-4-yloxy)pyrimidin-2-yl]phenyl}ethyl]pyridazin-4(1H)-one] | < 100 nM |
| CC(c1cccc(-c2ncc(OC3CCOCC3)cn2)c1)c1nn(-c2cnn(C)c2)ccc1=O (single isomer, unassigned) [Example 212, 1-(1-methyl-1H-pyrazol-4-yl)-3-[(1R or S)-1-{3-[5-(tetrahydro-2H-pyran-4-yloxy)pyrimidin-2-yl]phenyl}ethyl]pyridazin-4(1H)-one] | < 100 nM |
| CCn1cc(-n2ccc(=O)c(C(C)c3cccc(-c4ncc(OC5COC5)cn4)c3)n2)cn1 (single isomer, unassigned) [Example 213, 1-(1-ethyl-1H-pyrazol-4-yl)-3-((1S or R)-1-{3-[5-(oxetan-3-yloxy)pyrimidin-2-yl]phenyl}ethyl)pyridazin-4(1H)-one] | 100 to 1000 nM |
| CCn1cc(-n2ccc(=O)c(C(C)c3cccc(-c4ncc(OC5COC5)cn4)c3)n2)cn1 (single isomer, unassigned) [Example 214, 1-(1-ethyl-1H-pyrazol-4-yl)-3-((1R or S)-1-{3-[5-(oxetan-3-yloxy)pyrimidin-2-yl]phenyl}ethyl)pyridazin-4(1H)-one] | < 100 nM |
| CC(c1cccc(-c2ncc(OC3COC3)cn2)c1)c1nn(-c2cnn(C)c2)ccc1=O (single isomer, unassigned) [Example 215, 1-(1-methyl-1H-pyrazol-4-yl)-3-((1S or R)-1-{3-[5-(oxetan-3-yloxy)pyrimidin-2-yl]phenyl}ethyl)pyridazin-4(1H)-one] | 100 to 1000 nM |

Reference: patent US20120264735A1 (priority 2009, published 2012)
